Experimental data from PMC2787200 (Organic letters, 2008).

Target: ERα (Homo sapiens, UniProt P03372)
Assay: competitive radiometric binding assay with tritiated estradiol

Sequence of ERα (P03372 whole entry): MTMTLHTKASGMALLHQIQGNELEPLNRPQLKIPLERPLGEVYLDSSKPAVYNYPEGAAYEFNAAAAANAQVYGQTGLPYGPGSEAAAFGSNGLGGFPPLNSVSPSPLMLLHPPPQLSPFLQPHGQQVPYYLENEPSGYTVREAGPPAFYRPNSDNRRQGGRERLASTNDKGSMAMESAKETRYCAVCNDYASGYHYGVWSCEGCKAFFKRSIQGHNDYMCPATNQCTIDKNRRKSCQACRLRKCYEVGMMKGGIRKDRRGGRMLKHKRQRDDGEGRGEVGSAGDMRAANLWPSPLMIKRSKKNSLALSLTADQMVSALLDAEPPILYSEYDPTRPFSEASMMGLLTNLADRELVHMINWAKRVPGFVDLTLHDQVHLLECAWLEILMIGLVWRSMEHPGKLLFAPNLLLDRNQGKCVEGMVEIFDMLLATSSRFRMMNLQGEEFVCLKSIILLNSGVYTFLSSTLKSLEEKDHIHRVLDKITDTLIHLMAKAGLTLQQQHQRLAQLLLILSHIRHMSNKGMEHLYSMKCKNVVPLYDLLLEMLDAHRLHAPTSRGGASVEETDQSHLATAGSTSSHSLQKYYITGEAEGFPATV

## Cyclofenil-conjugated SNAPFL [compound 2]
  Ki: ~6 nM
